One data set in a line: in vitro. The note with it: human, wi-38.
The next data set deals with A549. Briefly: cells. The data set is classed as functional, cell-based. Particulars: Homo sapiens, A549, 48 h.
A further data set concerns SK-N-SH. Nature of the data set: cells. Type of data set: functional, cell-based. The note with it: Homo sapiens, 48 h.
The subject of another data set is BEL-7404 tumor cell line. Briefly: cells. The data set is classed as functional, cell-based. Particulars: Homo sapiens, BEL-7404, 72 h.
The test system of a further data set is HepG2. Nature of the data set: cells. Type of data set: functional, cell-based. The note with it: Homo sapiens, HepG2, 48 h.
Another data set has as its system MCF7. Nature of the data set: cells. The data set is classed as functional. The note with it: Homo sapiens, time 48 hrs.
The next data set relates to P388. Nature of the data set: cells. Type of data set: functional, cell-based. The note with it: Mus musculus, P388, 48 h.
The test system of a further data set is SW-620. Nature of the data set: cells. Type of data set: functional, cell-based. The note with it: Homo sapiens, SW-620, 48 h.
The next data set deals with HCC 2998. Nature of the data set: cells. Type of data set: functional, cell-based. Particulars: Homo sapiens, HCC 2998, 48 h.
Data set [1] concerns CCRF-CEM. Briefly: cells. Type of data set: functional, cell-based. The note with it: Homo sapiens, 48 h.
In another data set the test system is Ca9-22. Briefly: cells. The data set is classed as functional. The note with it: Homo sapiens, time 48 hrs.
The next data set concerns HSC-3. Briefly: cells. Particulars: Homo sapiens, time 48 hrs. Type of data set: functional.
A further data set has as its system HSC-2. Nature of the data set: cells. Type of data set: functional. Particulars: Homo sapiens, time 48 hrs.
Another data set relates to HSC-4. Nature of the data set: cells. Particulars: Homo sapiens, time 48 hrs. Type of data set: functional.
The next data set concerns NCI-H3122. Nature of the data set: cells. The data set is classed as functional, cell-based. The note with it: Homo sapiens.
For another data set, the system named is SNB-19. Nature of the data set: cells. Type of data set: functional. Particulars: Homo sapiens, time 72 hrs, read-out: ED50 (the source's name).
For another data set, the system named is PANC-1. Briefly: cells. The data set is classed as functional. Particulars: Homo sapiens, time 48 hrs.
The test system of a further data set is L1210. Briefly: cells. The data set is classed as functional, cell-based. Particulars: Mus musculus, L1210, 48 h.
The nature of data set [2]: cells. Type of data set: functional, cell-based, Molt 4/C8. The note with it: Homo sapiens, Molt4/C8, 48 h.
The next data set has as its system MDA-MB-231. Briefly: cells. Type of data set: functional. Particulars: Homo sapiens, time 48 hrs.
Data set [3] is described as follows: cells. The note with it: Homo sapiens, QBC939, light or radiation study, 24 h. Type of data set: functional, cell-based.
Description: Phototoxicity against human QBC939 cells assessed as inhibition of cell growth incubated for 24 hrs followed by irradiated with 54 J/cm^2 of light dose and measured after 24 hrs by MTT colorimetric assay
The next data set has as its system HCT-116. Briefly: cells. The data set is classed as functional, cell-based. The note with it: Homo sapiens, HCT-116, 48 h.
In another data set the test system is KM12. Briefly: cells. The note with it: Homo sapiens, KM12, 48 h. The data set is classed as functional, cell-based.
Data set [4] relates to K562. Briefly: cells. Type of data set: functional, cell-based. The note with it: Homo sapiens.
Description: Antileukemic activity against human K562 cells assessed as inhibition of cell growth incubated for 48 to 72 hrs by MTT assay
In data set [5] the test system is CCRF-CEM. Briefly: cells. Particulars: Homo sapiens. The data set is classed as functional, cell-based.
Description: Antileukemic activity against human CEM cells assessed as inhibition of cell growth incubated for 48 to 72 hrs by MTT assay
The test system of data set [6] is IMR-32. Nature of the data set: cells. Particulars: Homo sapiens, IMR-32, 0.5 h. The data set is classed as functional, cell-based.
Description: Cytotoxicity against human IMR-32 cells assessed as inhibition of cell growth incubated for 30 mins by SRB assay
In the next data set the test system is REH. Nature of the data set: cells. Type of data set: functional, cell-based. The note with it: Homo sapiens.
Data set [7] relates to K562. Nature of the data set: cells. Particulars: Homo sapiens. The data set is classed as functional, cell-based. This is another data set of the same source.
Description: Antiproliferative activity against human K562 cells assessed as inhibition of cell proliferation incubated for 48 to 72 hrs by MTT assay
Another data set deals with SiHa. Nature of the data set: cells. The data set is classed as functional. The note with it: Homo sapiens, time 48 hrs.
The nature of a further data set: animal or person. Type of data set: functional, organism-based. Particulars: Homo sapiens, QBC939, light or radiation study, 336 h.
The test system of data set [8] is COLO 205. Nature of the data set: cells. Type of data set: functional, cell-based. The note with it: Homo sapiens, COLO 205, 0.5 h.
Description: Cytotoxicity against human COLO 205 cells assessed as inhibition of cell growth incubated for 30 mins by SRB assay
The test system of data set [9] is K562. Nature of the data set: cells. The note with it: Homo sapiens, K562, 48 h. The data set is classed as functional, cell-based.
Data set [10] deals with COLO 205. Nature of the data set: cells. Particulars: Homo sapiens, COLO 205, 48 h. The data set is classed as functional, cell-based.
In the next data set the test system is HCT-15. Nature of the data set: cells. Type of data set: functional, cell-based. Particulars: Homo sapiens, HCT-15, 48 h.
A further data set concerns HT-29. Nature of the data set: cells. Type of data set: functional, cell-based. The note with it: Homo sapiens, HT-29, 48 h.
Data set [11] has as its system IMR-32. Nature of the data set: cells. The data set is classed as functional. The note with it: Homo sapiens, time 48 hrs.
Description: Growth inhibition at human IMR-32 cells incubated for 48 hrs by SRB assay

Structures are written as SMILES. pIC50: −log10 of the molar value. Converted amounts (≈) assume the structure as drawn. Structures can show the parent of a compound that is named as a salt.

Description for BEL-7404 tumor cell line: Antiproliferative activity against human BEL-7404 tumor cell line assessed as inhibition of cell proliferation incubated for 72 hrs by MTT assay
Description for Ca9-22: Cytotoxicity against human Ca9-22 cells assessed as reduction in cell viability incubated for 48 hrs by MTT assay
Description for HSC-2: Cytotoxicity against human HSC-2 cells assessed as reduction in cell viability incubated for 48 hrs by MTT assay
Description for HSC-3: Cytotoxicity against human HSC-3 cells assessed as reduction in cell viability incubated for 48 hrs by MTT assay
Description for HSC-4: Cytotoxicity against human HSC-4 cells assessed as reduction in cell viability incubated for 48 hrs by MTT assay
Description for HepG2: Antiproliferative activity against human HepG2 cells assessed as reduction in cell viability incubated for 48 hrs by MTT spectrophotometric assay
Description for MCF7: Growth inhibition at human MCF7 cells incubated for 48 hrs by SRB assay
Description for MDA-MB-231: Growth inhibition at human MDA-MB-231 cells incubated for 48 hrs by SRB assay
Description for NCI-H3122: Antiproliferative activity against human NCI-H3122 cells assessed as inhibition of cell proliferation
Description for PANC-1: Growth inhibition at human PANC-1 cells incubated for 48 hrs by SRB assay
Description for REH: Antiproliferative activity against human REH cells assessed as inhibition of cell proliferation incubated for 48 to 72 hrs by MTT assay
Description for SNB-19: Antiproliferative activity against human SNB-19 cells assessed as cell growth inhibition incubated for 72 hrs by WST-1 assay
Description for SiHa: Growth inhibition at human SiHa cells incubated for 48 hrs by SRB assay

In the case of `COc1cc(/C=C/C(=O)N2CCC=C(Cl)C2=O)cc(OC)c1OC`, the IC50 at 48 h in the data set “in vitro” was over 60 µM.

Consider `COC(=O)C1C(=O)CC(c2ccc(OC)cc2)N(c2ccccc2)C1c1ccc(OC)cc1` (stereo not drawn), for which the negative logarithm of the IC50 (pIC50) was 4.57 in the data set with A549 and 4.96 in the data set with SK-N-SH. For the molecule `CCOC(=O)C12CC3CC(C1)CC(C(=O)OC1CC(C)(C)N(O)C(C)(C)C1)(C3)C2`, the pIC50 with BEL-7404 tumor cell line is 5.36. In the case of `O=C(NC1CCN(Cc2c(F)cccc2F)CC1)c1ccc(Oc2ccccc2)cc1`, in the data set on HepG2, the pIC50 was 6.60.

`O=C(/C=C/c1ccccc1)c1ccc(OCCN2CCCCC2)cc1`: in the data set with MCF7, the GI50 was under 10 µM. Turning to `O=C1/C(=C/c2ccccc2)CN(C(=O)c2ccc(/C=C/C(=O)c3ccc([N+](=O)[O-])cc3)cc2)C/C1=C\c1ccccc1`, the pIC50 in the data set with P388 is 6.66. With `CCN1CC[C@@](O)(c2ccc(Oc3ccccc3)cc2)[C@H](C(=O)c2ccc(Oc3ccccc3)cc2)C1`, the figures for the negative logarithm of the IC50 (pIC50) in the data set with SW-620 and with HCC 2998 were 5.18 and 4.92, respectively. Molecule `O=C(/C=C/c1ccccc1)c1ccc(OCCN2CCCC2)cc1` came in with a concentration for 50% growth inhibition (GI50) in the data set with MCF7 of under 10 µM. `O=C1/C(=C/c2ccccc2)CN(C(=O)c2ccc(/C=C/C(=O)c3ccccc3)cc2)C/C1=C\c1ccccc1`: the pIC50 in the data set with CCRF-CEM [1] is 5.80. For `COc1cc(/C=C2\Cc3ccccc3C2=O)cc(CN2CCCCC2)c1O`, the CC50 came to 6.5 µM in the data set on Ca9-22, 8.4 µM in the data set with HSC-3, 7.7 µM with HSC-2 and 9.9 µM in the data set with HSC-4. In turn, `COc1cc(C2CCN(C(=O)CO)CC2)ccc1Nc1ncc(C(F)(F)F)c(Nc2ccc(C3CCN(C(=O)CO)CC3)cc2OC)n1` showed a negative logarithm of the IC50 (pIC50) with NCI-H3122 of 7.34.

As for `Cn1cnc2nc(SCCN3CCCCC3)nc(SCCN3CCCCC3)c21`, the EC50 in the data set with SNB-19 was determined as 9.18 µg/mL (≈ 21.8 µM). As to `COc1ccc(CNC(=O)NC2CCN(c3cc(-c4ccc(OC)cc4F)ncn3)CC2)cc1`, the GI50 with PANC-1 worked out at 0.47 µM. This counts as sub-micromolar.

Consider `O=C1/C(=C/c2ccccc2)CN(C(=O)c2ccc(/C=C/C(=O)c3ccc(O)cc3)cc2)C/C1=C\c1ccccc1`, for which the pIC50 was 5.27 with L1210 and 5.80 in the data set “cells [2]”. The molecule `COc1ccc(CNC(=O)NC2CCN(c3cc(-c4ccc(Oc5ccccc5)cc4)ncn3)CC2)cc1` came in with a 50% growth inhibitory concentration (GI50) with MDA-MB-231 of 0.2 µM. `O=C(/C=C/c1ccc(Cl)cc1)c1ccc(OCCN2CCCCC2)cc1` gave a 50% growth inhibitory concentration (GI50) in the data set on MCF7 of under 10 µM.

In turn, `COC(C)c1c(C)c2cc3nc(cc4[nH]c(cc5nc(cc1[nH]2)C(C)=C5CCC(=O)O)c(CCC(=O)O)c4C)C(C)=C3C(C)O` (stereo not drawn) gave a pIC50 in the data set “cells [3]” of 5.02. `O=C(/C=C/c1ccc(OCCN2CCCCC2)cc1)c1ccccc1` yielded a concentration for 50% growth inhibition (GI50) with MCF7 of under 10 µM. Take `CCN1CC[C@@](O)(c2ccc(Oc3ccc(Cl)cc3)cc2)[C@H](C(=O)c2ccc(Oc3ccc(Cl)cc3)cc2)C1`: the figures for the pIC50 in the data set with HCT-116 and in the data set with KM12 were 5.42 and 5.59, respectively.

Consider `COc1ccc(C(=O)c2ccc(OCC(=O)N3CCC(CCCC4CCN(C(=S)Nc5ccc(Cl)cc5)CC4)CC3)cc2)c(OC)c1`, for which the pIC50 with K562 [4] and with CCRF-CEM [5] was 5.68 each time. `CN1OC[C@@H]2CN(c3ccccc3)c3oc4cc(Cl)ccc4c(=O)c3[C@@H]21` had a negative-log IC50 (pIC50) with IMR-32 [6] of 5.00. As to `O=C(c1ccc(F)c([N+](=O)[O-])c1)N1CCC(CCCC2CCNCC2)CC1`, the pIC50 in the data set with REH is 5.64; with K562 [7] it was 5.70. In the data set on SiHa, `COC(=O)c1ccc(NC(=O)NC2CCN(c3cc(-c4ccc(OC)cc4F)ncn3)CC2)cc1` had a 50% growth inhibitory concentration (GI50) of 0.22 µM. For the molecule `COc1ccc(/C2=C3\C=CC(=N3)/C(c3ccc(OC)cc3)=c3/cc/c([nH]3)=C(\c3ccc(OC)cc3)C3=NC(C(N4CCCCC4)=C3)C(c3ccc(OC)cc3)c3ccc2[nH]3)cc1` (stereo not drawn), the pIC50 in the data set “animal or person” is 5.26.

For the molecule `CN1O[C@@H](c2ccccc2)[C@@H]2CN(c3ccccc3)c3oc4ccccc4c(=O)c3[C@@H]21`, in the data set with COLO 205 [8], the pIC50 is 4.90.

In turn, `O=C(/C=C/c1ccc(OCCN2CCCCC2)cc1)c1ccc(F)cc1` had a GI50 in the data set on MCF7 of under 10 µM. As for `c1cc2c(cc1CN1CCC(=NN=C3CCN(Cc4ccc5c(c4)OCO5)CC3)CC1)OCO2`, it took 6.35 µg/mL (≈ 13.7 µM) to reach half-maximal inhibition in the data set on K562 [9] (IC50).

Take `COc1ccc(C(=O)c2ccc(OCC(=O)N3CCC(CCCC4CCN(C(=O)Nc5ccc(Cl)cc5)CC4)CC3)cc2)c(OC)c1`: the negative-log IC50 (pIC50) was 5.80 with K562 [4] and 5.70 with CCRF-CEM [5]. Regarding `CCN1CC[C@@](O)(c2ccc(Oc3ccc(C)cc3)cc2)[C@H](C(=O)c2ccc(Oc3ccc(C)cc3)cc2)C1`, the pIC50 was 4.92 in the data set with COLO 205 [10], 5.40 with HCT-15 and 5.48 in the data set on HT-29. For the molecule `O=C(Nc1ccccc1)NC1CCN(c2cc(-c3ccc(Oc4ccccc4)cc3)ncn2)CC1`, the GI50 in the data set on IMR-32 [11] worked out at 0.65 µM. Consider `COc1ccc(/C=C/C(=O)c2ccc(OCCN3CCCCC3)cc2)cc1`, for which the concentration for 50% growth inhibition (GI50) in the data set on MCF7 was under 10 µM. With `COc1ccc(C(=O)c2ccc(OCC(=O)N3CCC(CCCC4CCN(C(=O)Nc5ccc(F)cc5)CC4)CC3)cc2)c(OC)c1`, the pIC50 in the data set with K562 [4] was 5.66; in the data set on CCRF-CEM [5], 5.64. Molecule `COc1cccc2c1C(=O)c1c(O)c3c(c(O)c1C2=O)C[C@@](O)(C(=O)CO)C[C@@H]3O[C@H]1C[C@H](N)[C@H](O)[C@H](C)O1` [DOXORUBICIN HYDROCHLORIDE] gave a pIC50 in the data set on IMR-32 [6] of 5.77.

The molecule `O=c1[nH]cc(F)c(=O)[nH]1` [FLUOROURACIL] gave a negative logarithm of the IC50 (pIC50) with COLO 205 [8] of 4.56. Also, the IC50 with K562 [9] stood at 8.48 µg/mL (≈ 65.2 µM).

As a reminder, the IC50 is the midpoint of a concentration-inhibition curve. The pIC50 is the negative decadic logarithm of the IC50, by convention in mol/L. Read a high pIC50 as a small IC50. For orientation: GI50 means the concentration that inhibits growth by half. Read a low GI50 as greater sensitivity of the cells. The term CC50 denotes the concentration giving 50% cytotoxicity. Higher therefore signals better tolerance by the cells.

(Values after ChEMBL document CHEMBL5244215, “Recent advancement of piperidine moiety in treatment of cancer- A review” (Eur J Med Chem, 2018).)
